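Tested at 5 concentrations; 48 h exposure; 96-well plates; endpoints linearly interpolated, else capped at highest concentration. GI50: concentration for 50% inhibition of growth.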 The source made the active and inactive calls. Rule as the data show it: active = GI50 up to about 1.1 µM and inactive = higher.
Tests used:
Test in all cases: DTP human tumour cell line panel, 48 h
[1] = system: SN12C
[2] = system: NCI-H522
[3] = system: CCRF-CEM
[4] = system: RXF 393
[5] = system: NCI/ADR-RES
[6] = system: A498
[7] = system: HOP-92
[8] = system: RPMI-8226
[9] = system: OVCAR-5
[10] = system: SK-OV-3
[11] = system: MCF7
[12] = system: HL-60
[13] = system: EKVX
[14] = system: HT-29
[15] = system: OVCAR-3
[16] = system: HCT-15
[17] = system: TK-10
[18] = system: SR
[19] = system: PC-3
[20] = system: T47D

SMILES	GI50 [1]	GI50 [2]	GI50 [3]	GI50 [4]	GI50 [5]	GI50 [6]	GI50 [7]	GI50 [8]	GI50 [9]	GI50 [10]	GI50 [11]	GI50 [12]	GI50 [13]	GI50 [14]	GI50 [15]	GI50 [16] [µM]	GI50 [17]	GI50 [18]	GI50 [19]	GI50 [20]
CC1=C(O)C(=O)[C@@H]2O[C@@H]2C1=O	19.3 µM (inactive)	2 µM (inactive)	1.6 µM (inactive)	2.84 µM (inactive)	10.7 µM (inactive)	7.13 µM (inactive)	5.57 µM (inactive)	3.46 µM (inactive)	16.3 µM (inactive)	33.4 µM (inactive)	10 µM (inactive)	2.2 µM (inactive)	14.7 µM (inactive)	12.1 µM (inactive)	6.5 µM (inactive)	7.01				
N#CC(OC1OC(COC2OC(CO)C(O)C(O)C2O)C(O)C(O)C1O)c1ccccc1 (stereo unspecified)	> 225 µM (inactive)	> 225 µM (inactive)	> 225 µM (inactive)	> 225 µM (inactive)	> 225 µM (inactive)	> 225 µM (inactive)	> 225 µM (inactive)	> 225 µM (inactive)	> 191 µM (inactive)	> 225 µM (inactive)	> 225 µM (inactive)	> 225 µM (inactive)	> 225 µM (inactive)	> 225 µM (inactive)	> 225 µM (inactive)	> 225				
COC(=O)[C@H]1C=NN[C@@H]1C(=O)N1[C@H]2CC3CC[C@@]2(CS1(=O)=O)C3(C)C	> 100 µM (inactive)	> 100 µM (inactive)	> 100 µM (inactive)		> 100 µM (inactive)	> 100 µM (inactive)	> 100 µM (inactive)	> 100 µM (inactive)	> 100 µM (inactive)	> 100 µM (inactive)	> 100 µM (inactive)	> 100 µM (inactive)	> 100 µM (inactive)			> 100	> 100 µM (inactive)	> 100 µM (inactive)	> 100 µM (inactive)	
O=C(CNc1cccc(Cl)c1)Nn1c(-c2ccccc2)nc2ccccc2c1=O	4.13 µM (inactive)	1.42 µM (inactive)	1.58 µM (inactive)			19.5 µM (inactive)	2.31 µM (inactive)	10 µM (inactive)	18.6 µM (inactive)	10.8 µM (inactive)	2.04 µM (inactive)	2.95 µM (inactive)	17.9 µM (inactive)	5.9 µM (inactive)	7.1 µM (inactive)		> 10 µM (inactive)	4.6 µM (inactive)	10.2 µM (inactive)	
C=CCOC(=O)C1=C(CCC[C@@H](C)O[Si](C)(C)C(C)(C)C)N=C(N)N2[C@H](CCO)CC[C@@H]12	16.5 µM (inactive)	12.7 µM (inactive)			19.7 µM (inactive)	18 µM (inactive)	13.6 µM (inactive)	9.44 µM (inactive)		14.1 µM (inactive)	7.69 µM (inactive)				11.1 µM (inactive)	17.7	16.9 µM (inactive)		8.45 µM (inactive)	11.8 µM (inactive)
COc1cc2c(c3nc4ccccc4nc13)-c1ccc(SC)c(=O)cc1[C@@H](NC(C)=O)CC2	0.0968 µM (active)	0.0327 µM (active)	0.0601 µM (active)	> 100 µM (inactive)	6.9 µM (inactive)	0.82 µM (active)	0.149 µM (active)	0.0387 µM (active)		0.266 µM (active)	0.0485 µM (active)		0.0525 µM (active)	0.0364 µM (active)	0.0545 µM (active)	1.23		0.0158 µM (active)	0.0479 µM (active)	
COc1cc(Nc2cnc3cc(F)c(F)cc3n2)cc(OC)c1OC	> 100 µM (inactive)	67.1 µM (inactive)	> 100 µM (inactive)	36.8 µM (inactive)	> 100 µM (inactive)	> 100 µM (inactive)	> 100 µM (inactive)		> 100 µM (inactive)	> 100 µM (inactive)	> 100 µM (inactive)	24.9 µM (inactive)	> 100 µM (inactive)	> 100 µM (inactive)	> 100 µM (inactive)	> 100	> 100 µM (inactive)		> 100 µM (inactive)	> 100 µM (inactive)
Cn1c(=O)n2c(-c3ccccc3)c(-c3ccccc3)n2c1=O	> 100 µM (inactive)		> 100 µM (inactive)	> 100 µM (inactive)	> 100 µM (inactive)	> 100 µM (inactive)	> 100 µM (inactive)		> 100 µM (inactive)	> 100 µM (inactive)	> 100 µM (inactive)	46.9 µM (inactive)	> 100 µM (inactive)	> 100 µM (inactive)	> 100 µM (inactive)	> 100	> 100 µM (inactive)	> 100 µM (inactive)	> 100 µM (inactive)	
CC1CC2=C(C1)C(C1(C)C(=O)CC3C(C1=O)C3(C)C)C(C)C2=O (stereo unspecified)	> 100 µM (inactive)	> 100 µM (inactive)	> 100 µM (inactive)	> 100 µM (inactive)		> 100 µM (inactive)	> 100 µM (inactive)	> 100 µM (inactive)	> 100 µM (inactive)	> 100 µM (inactive)	> 100 µM (inactive)	> 100 µM (inactive)	> 100 µM (inactive)	> 100 µM (inactive)	> 100 µM (inactive)	> 100	> 100 µM (inactive)	> 100 µM (inactive)	> 100 µM (inactive)	> 100 µM (inactive)
COc1ccc2c(O)c1-c1c(OC)ccc(c1O)SSc1ccc(OC)c(c1O)-c1c(OC)ccc(c1O)SS2	> 100 µM (inactive)	3.58 µM (inactive)	4.56 µM (inactive)	16.1 µM (inactive)		> 100 µM (inactive)	23 µM (inactive)	1.99 µM (inactive)	66.4 µM (inactive)	> 100 µM (inactive)	> 100 µM (inactive)	8.15 µM (inactive)	7.87 µM (inactive)	> 100 µM (inactive)	20.6 µM (inactive)		65.8 µM (inactive)	4.27 µM (inactive)	5.42 µM (inactive)	20.8 µM (inactive)
COc1cc(Nc2cc(Cl)cc(Cl)c2)nc(N)n1	20.9 µM (inactive)	20.4 µM (inactive)	17.6 µM (inactive)	14.5 µM (inactive)	20.5 µM (inactive)	21.9 µM (inactive)	16.4 µM (inactive)	19.9 µM (inactive)	40 µM (inactive)	27.5 µM (inactive)	27.2 µM (inactive)		6.11 µM (inactive)	17.8 µM (inactive)	17.2 µM (inactive)	17.1	21.6 µM (inactive)		20.8 µM (inactive)	24.6 µM (inactive)
O=C(O)c1c(CC(Cc2ccc3c(c2)CCC3)C(=O)O)ccc2c1CCC2 (stereo unspecified)	> 100 µM (inactive)	> 100 µM (inactive)	> 100 µM (inactive)		> 100 µM (inactive)	> 100 µM (inactive)	> 100 µM (inactive)	> 100 µM (inactive)	> 100 µM (inactive)		> 100 µM (inactive)	> 100 µM (inactive)	> 100 µM (inactive)	> 100 µM (inactive)	> 100 µM (inactive)	> 100	> 100 µM (inactive)	> 100 µM (inactive)	> 100 µM (inactive)	
O=P1(Oc2ccc(Cl)cc2Cl)Oc2cc3ccccc3cc2O1	> 94.4 µM (inactive)	26.5 µM (inactive)	35.5 µM (inactive)	> 58.9 µM (inactive)	84.1 µM (inactive)	29.1 µM (inactive)	28.5 µM (inactive)	18.8 µM (inactive)	> 100 µM (inactive)	> 100 µM (inactive)	31.8 µM (inactive)	21.5 µM (inactive)	33.9 µM (inactive)	> 72.9 µM (inactive)	28.4 µM (inactive)	50				
COc1ccc(N[S+]([O-])C2CCCCC2)cc1 (stereo unspecified)	> 100 µM (inactive)	> 100 µM (inactive)	> 100 µM (inactive)	> 100 µM (inactive)	> 100 µM (inactive)			> 100 µM (inactive)	> 100 µM (inactive)		> 100 µM (inactive)	> 100 µM (inactive)	> 100 µM (inactive)	> 100 µM (inactive)	> 100 µM (inactive)	> 100	> 100 µM (inactive)	> 100 µM (inactive)		
O=C1C(C(O)(C(F)(F)Cl)C(F)(F)Cl)CCCC1C(O)(C(F)(F)Cl)C(F)(F)Cl (stereo unspecified)		> 10 µM (inactive)		> 10 µM (inactive)	> 10 µM (inactive)	> 10 µM (inactive)	5.11 µM (inactive)		> 10 µM (inactive)	> 10 µM (inactive)	> 10 µM (inactive)		> 10 µM (inactive)	> 10 µM (inactive)	> 10 µM (inactive)	> 10	> 10 µM (inactive)		> 10 µM (inactive)	> 10 µM (inactive)
C=C1CC(OC)(C(O)C(=O)N[C@H]2OCO[C@H]3C2O[C@H](C[C@H](O)COC)C(C)(C)C3OC)O[C@H](C)[C@@H]1C (stereo partly specified)	< 0.00773 µM (active)	< 0.00773 µM (active)	< 0.00773 µM (active)	< 0.00773 µM (active)	< 0.00773 µM (active)	< 0.00773 µM (active)		< 0.00773 µM (active)	< 0.00773 µM (active)		< 0.00773 µM (active)	< 0.00773 µM (active)	< 0.00773 µM (active)	< 0.00773 µM (active)	< 0.00773 µM (active)	< 0.00773				
CSCC[C@@H](NC(=O)[C@H](CC(C)C)NC(=O)C(Cc1cnc[nH]1)NC(=O)CNC(=O)[C@@H](NC(=O)[C@H](C)NC(=O)[C@H](Cc1c[nH]c2ccccc12)NC(=O)[C@H](CCC(N)=O)NC(=O)[C@@H](N)CC(N)=O)C(C)C)C(N)=O (stereo partly specified)	> 100 µM (inactive)	> 100 µM (inactive)	> 100 µM (inactive)	> 100 µM (inactive)	> 100 µM (inactive)	> 100 µM (inactive)	> 100 µM (inactive)	> 100 µM (inactive)	> 100 µM (inactive)	> 100 µM (inactive)	> 100 µM (inactive)	> 100 µM (inactive)	> 100 µM (inactive)	> 100 µM (inactive)	> 100 µM (inactive)	> 100				
